Source: US9886545B2, “Interrogatory cell-based assays and uses thereof” (Berg LLC, priority 2011, dated 2018)

Experiments:
[1] = biological target: FASN (Mus musculus, UniProt P19096); settings: Loftus et al 2000; cited from earlier work
[2] = test system: Bcl2 in melanoma cell; experiment: Bcl2 level in melanoma cell in the presence of VEGF; format: cell-based
Text: (§1) The term “Multidimensional Intracellular Molecule (MIM)”, is an isolated version or synthetically produced version of an endogenous molecule that is naturally produced by the body and/or is present in at least one cell of a human. A MIM is capable of entering a cell and the entry into the cell includes complete or partial entry into the cell as long as the biologically active portion of the molecule wholly enters the cell. MIMs are capable of inducing a signal transduction and/or gene expression mechanism within a cell. MIMs are multidimensional because the molecules have both a therapeutic and a carrier, e.g., drug delivery, effect. MIMs also are multidimensional because the molecules act one way in a disease state and a different way in a normal state. For example, in the case of CoQ-10, administration of CoQ-10 to a melanoma cell in the presence of VEGF leads to a decreased level of Bcl2 which, in turn, leads to a decreased oncogenic potential for the melanoma cell. In contrast, in a normal fibroblast, co-administration of CoQ-10 and VEFG has no effect on the levels of Bcl2.

[3] = test system: LDHA expression in HepG2 cells; experiment: Wet lab validation of LDHA expression in HepG2 cells; format: cell-based; settings: 50 uM or 100 uM CoQ10 for 24 or 48 hours
Procedure: Protein accession number P00338 is LDHA. Wet lab validation of proteomics data were performed for LDHA expression in HepG2 cells (see FIG. 20).

[4] = test system: human mitochondrial energy metabolism genes; experiment: Transcriptional profiling of diabetic cardiomyocytes; format: cell-based; settings: diabetic cardiomyocytes treated with diabetic drug plus rescue molecule (T+R) vs untreated (UT)
Procedure: Human cardiomyocytes were subject to conditions simulating an diabetic environment experienced by the disease-relevant cells in vivo. Specifically, the cells were exposed to hyperglycemic conditions and hyperlipidemia conditions. The hyperglycemic condition was induced by culturing cells in media containing 22 mM glucose. The hyperlipidemia condition was induced by culturing the cells in media containing 1 mM L-carnitine, 0.7 mM Oleic acid and 0.7 mM Linoleic acid. […]
iProfiling of changes in total cellular protein expression by quantitative proteomics was performed for cell and media samples collected for each condition and with each “environmental perturbation”, i.e, diabetic drug treatment, Coenzyme Q10 treatment or both, using the techniques described above in the detailed description. […] Following data collection (Ct), the final fold change over control was determined using the δCt method as outlined in manufacturer's protocol. […] Functional assays such as Oxygen consumption rate OCR were measured by employing the Seahorse analyzer essentially as recommended by the manufacturer. OCR was recorded by the electrodes in a 7 μl chamber created with the cartridge pushing against the seahorse culture plate. […]

[5] = test system: Bcl2 in normal fibroblast; experiment: Bcl2 level in normal fibroblast with VEGF co-administration; format: cell-based
Text: as §1

Chain of FASN (P19096 whole entry): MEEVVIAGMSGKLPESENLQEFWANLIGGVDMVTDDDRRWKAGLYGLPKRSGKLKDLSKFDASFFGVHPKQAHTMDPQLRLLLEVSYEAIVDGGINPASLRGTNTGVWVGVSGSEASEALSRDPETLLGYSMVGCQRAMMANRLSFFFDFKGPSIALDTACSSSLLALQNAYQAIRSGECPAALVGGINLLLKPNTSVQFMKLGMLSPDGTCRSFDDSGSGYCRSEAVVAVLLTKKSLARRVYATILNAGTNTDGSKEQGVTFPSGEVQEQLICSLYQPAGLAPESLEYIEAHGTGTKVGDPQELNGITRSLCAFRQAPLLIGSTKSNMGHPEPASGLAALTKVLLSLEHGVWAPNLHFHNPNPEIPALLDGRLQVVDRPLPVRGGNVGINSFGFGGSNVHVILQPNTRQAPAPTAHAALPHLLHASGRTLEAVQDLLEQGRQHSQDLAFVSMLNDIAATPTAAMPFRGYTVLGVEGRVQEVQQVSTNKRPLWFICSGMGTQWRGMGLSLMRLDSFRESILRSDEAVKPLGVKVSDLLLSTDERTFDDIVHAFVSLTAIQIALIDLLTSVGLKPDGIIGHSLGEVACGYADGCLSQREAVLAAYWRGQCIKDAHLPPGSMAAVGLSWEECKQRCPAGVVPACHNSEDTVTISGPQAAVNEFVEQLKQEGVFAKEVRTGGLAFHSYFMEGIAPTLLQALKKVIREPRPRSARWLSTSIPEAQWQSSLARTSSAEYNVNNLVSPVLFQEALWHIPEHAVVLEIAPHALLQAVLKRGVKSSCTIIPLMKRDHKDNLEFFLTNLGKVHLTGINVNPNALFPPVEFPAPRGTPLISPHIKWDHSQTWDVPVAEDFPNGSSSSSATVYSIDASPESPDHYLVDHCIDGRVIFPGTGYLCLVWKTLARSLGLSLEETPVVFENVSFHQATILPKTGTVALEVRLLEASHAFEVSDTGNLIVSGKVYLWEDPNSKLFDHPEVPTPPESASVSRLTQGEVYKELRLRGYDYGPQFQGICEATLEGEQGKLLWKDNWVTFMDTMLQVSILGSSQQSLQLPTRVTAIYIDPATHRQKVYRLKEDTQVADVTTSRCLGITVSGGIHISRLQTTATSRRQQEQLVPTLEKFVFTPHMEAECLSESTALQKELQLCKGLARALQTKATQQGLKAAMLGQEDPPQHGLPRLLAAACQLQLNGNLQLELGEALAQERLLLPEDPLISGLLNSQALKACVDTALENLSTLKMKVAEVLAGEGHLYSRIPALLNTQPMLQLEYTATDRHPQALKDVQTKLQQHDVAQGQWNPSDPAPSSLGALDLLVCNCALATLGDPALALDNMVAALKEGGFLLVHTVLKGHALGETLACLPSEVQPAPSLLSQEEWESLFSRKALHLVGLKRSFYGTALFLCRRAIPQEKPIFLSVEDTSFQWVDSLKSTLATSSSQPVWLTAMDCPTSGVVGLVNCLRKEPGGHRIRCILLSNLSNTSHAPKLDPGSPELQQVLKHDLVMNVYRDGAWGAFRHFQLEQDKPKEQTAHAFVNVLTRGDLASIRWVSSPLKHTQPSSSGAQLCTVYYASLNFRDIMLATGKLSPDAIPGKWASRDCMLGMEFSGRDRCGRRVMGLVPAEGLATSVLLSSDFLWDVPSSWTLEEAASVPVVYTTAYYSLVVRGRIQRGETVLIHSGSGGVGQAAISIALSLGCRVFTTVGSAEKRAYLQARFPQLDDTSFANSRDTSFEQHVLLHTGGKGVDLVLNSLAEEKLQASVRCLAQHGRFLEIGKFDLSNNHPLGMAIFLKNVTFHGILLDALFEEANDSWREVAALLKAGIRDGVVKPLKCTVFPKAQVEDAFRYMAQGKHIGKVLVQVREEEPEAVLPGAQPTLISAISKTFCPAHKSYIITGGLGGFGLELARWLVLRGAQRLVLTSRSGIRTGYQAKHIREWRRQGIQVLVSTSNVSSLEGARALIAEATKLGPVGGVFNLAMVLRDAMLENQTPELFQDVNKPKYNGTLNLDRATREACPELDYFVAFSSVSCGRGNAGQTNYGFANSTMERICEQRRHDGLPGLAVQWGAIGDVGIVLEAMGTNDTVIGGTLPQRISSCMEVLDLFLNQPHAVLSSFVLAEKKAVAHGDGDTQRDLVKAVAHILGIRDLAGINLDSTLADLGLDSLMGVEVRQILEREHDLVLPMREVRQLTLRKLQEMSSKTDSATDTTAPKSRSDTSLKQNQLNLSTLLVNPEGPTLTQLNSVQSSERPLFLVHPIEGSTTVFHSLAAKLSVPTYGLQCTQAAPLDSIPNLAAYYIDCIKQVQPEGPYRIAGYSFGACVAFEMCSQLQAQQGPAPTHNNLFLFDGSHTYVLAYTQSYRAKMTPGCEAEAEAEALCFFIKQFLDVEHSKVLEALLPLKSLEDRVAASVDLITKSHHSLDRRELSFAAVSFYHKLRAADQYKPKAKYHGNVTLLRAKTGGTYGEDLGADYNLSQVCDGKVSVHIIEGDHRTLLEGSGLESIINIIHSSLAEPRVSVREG

| gene expression and transcription of mitochondrial energy metabolism genes, rescue [4] | gene expression and transcription of mitochondrial energy metabolism genes, rescue ([4]; listed as R) | Compound | food intake [1] | weight loss [1] | level of Bcl2 [2] | LDHA expression levels [3] | levels of Bcl2 [5] |
| --- | --- | --- | --- | --- | --- | --- | --- |
| – | – | C=C1C(=O)OC(CCCCCCCC)C1C(=O)O (stereo not drawn) [C75] | reducing | effectuate weight loss | – | – | – |
| – | – | C/C=C/C/C=C/CCC(=O)[C@H]1O[C@H]1C(N)=O [Cerulenin] | reducing | effectuate weight loss | – | – | – |
| normalize | normalizes | COC1=C(OC)C(=O)C(C/C=C(\C)CC/C=C(\C)CC/C=C(\C)CC/C=C(\C)CC/C=C(\C)CC/C=C(\C)CC/C=C(\C)CC/C=C(\C)CC/C=C(\C)CCC=C(C)C)=C(C)C1=O [Coenzyme Q10] | – | – | decreased | decreased | no effect |
